# Reference: ChEMBL document CHEMBL1125804, “Antitumor agents. 120. New 4-substituted benzylamine and benzyl ether derivatives of 4'-O-demethylepipodophyllotoxin as potent inhibitors of human DNA topoisomerase II” (1991)
# Columns and labels:
# [1] = 50% reduction in KB cell number after a 3-day incubation.; type: functional; conditions: Homo sapiens, 72 h, read-out: ID50 (the source's name)
# Nucleic Acid [2] = assay: % complex formation of cellular protein -DNA complex at a concentration of 10 uM; type: functional; conditions: Homo sapiens
# [3] = target: DNA topoisomerase II (Homo sapiens) (UniProt P11388+Q02880); assay: Inhibition of human DNA topoisomerase II; type: protein assay
# [4] = Compound was tested for the concentration to afford 50% reduction in KB cell number after a 3-day incubation; type: functional; conditions: Homo sapiens, 72 h, read-out: ID50 (the source's name)
# Nucleic Acid [5] = assay: Compound was tested for the % complex formation of cellular protein -DNA complex at a concentration of 10 uM; type: functional; conditions: Homo sapiens
SMILES,IC50 [1],Complex formation (Nucleic Acid [2]),ID50 [3],IC50 [4],Complex formation (Nucleic Acid [5])
COc1cc([C@@H]2c3cc4c(cc3[C@@H](NCc3ccc([N+](=O)[O-])cc3)[C@H]3COC(=O)[C@H]23)OCO4)cc(OC)c1O,0.4 µM,216%,50 µM,–,–
COc1cc([C@@H]2c3cc4c(cc3[C@@H](NCc3cccc(F)c3)[C@H]3COC(=O)[C@H]23)OCO4)cc(OC)c1O,3 µM,216%,25 µM,–,–
COc1cc(CN[C@@H]2c3cc4c(cc3[C@@H](c3cc(OC)c(O)c(OC)c3)[C@H]3C(=O)OC[C@@H]32)OCO4)cc(OC)c1,1.7 µM,144%,100 µM,–,–
COc1cc([C@@H]2c3cc4c(cc3[C@@H](Nc3ccc(F)cc3)[C@H]3COC(=O)[C@H]23)OCO4)cc(OC)c1O,0.24 µM,213%,–,–,–
COc1cc([C@@H]2c3cc4c(cc3[C@@H](NCc3ccc(F)cc3)[C@H]3COC(=O)[C@H]23)OCO4)cc(OC)c1O,> 4 µM,169%,50 µM,–,–
COc1cc([C@@H]2c3cc4c(cc3[C@@H](Nc3ccc(N)cc3)[C@H]3COC(=O)[C@H]23)OCO4)cc(OC)c1O,0.8 µM,330%,–,–,–
COc1cc([C@@H]2c3cc4c(cc3[C@@H](NCc3ccccc3N)[C@H]3COC(=O)[C@H]23)OCO4)cc(OC)c1O,< 0.4 µM,184%,25 µM,–,–
COc1cc([C@@H]2c3cc4c(cc3[C@@H](NCc3ccccc3F)[C@H]3COC(=O)[C@H]23)OCO4)cc(OC)c1O,1.9 µM,126%,100 µM,–,–
COc1cc([C@@H]2c3cc4c(cc3[C@@H](NCc3ccccc3[N+](=O)[O-])[C@H]3COC(=O)[C@H]23)OCO4)cc(OC)c1O,1.8 µM,144%,50 µM,–,–
COc1cc([C@@H]2c3cc4c(cc3[C@@H](NCc3cccc([N+](=O)[O-])c3)[C@H]3COC(=O)[C@H]23)OCO4)cc(OC)c1O,< 0.4 µM,130%,25 µM,–,–
COc1cc([C@@H]2c3cc4c(cc3[C@@H](NCc3ccc(C(F)(F)F)cc3)[C@H]3COC(=O)[C@H]23)OCO4)cc(OC)c1O,2.3 µM,99%,100 µM,–,–
COc1cc([C@@H]2c3cc4c(cc3[C@@H](Nc3ccc([N+](=O)[O-])cc3)[C@H]3COC(=O)[C@H]23)OCO4)cc(OC)c1O,–,–,–,0.49 µM,323%
COc1cc([C@@H]2c3cc4c(cc3[C@@H](NCc3cccc(N)c3)[C@H]3COC(=O)[C@H]23)OCO4)cc(OC)c1O,< 0.4 µM,191%,25 µM,–,–
COc1cc([C@@H]2c3cc4c(cc3[C@@H](NCc3cccc(C#N)c3)[C@H]3COC(=O)[C@H]23)OCO4)cc(OC)c1O,< 0.4 µM,225%,25 µM,–,–
COc1cc([C@@H]2c3cc4c(cc3[C@@H](OCc3ccccc3)[C@H]3COC(=O)[C@H]23)OCO4)cc(OC)c1O,2.4 µM,< 25%,> 100 µM,–,–
COc1cc([C@@H]2c3cc4c(cc3[C@@H](NCc3ccccc3)[C@H]3COC(=O)[C@H]23)OCO4)cc(OC)c1O,2.2 µM,181%,25 µM,–,–
COc1cc([C@@H]2c3cc4c(cc3[C@@H](O[C@@H]3O[C@@H]5CO[C@@H](C)O[C@H]5[C@H](O)[C@H]3O)[C@H]3COC(=O)[C@H]23)OCO4)cc(OC)c1O [ETOPOSIDE],0.2 µM,–,–,–,100%
COc1cc([C@@H]2c3cc4c(cc3[C@@H](NCc3ccc(C#N)cc3)[C@H]3COC(=O)[C@H]23)OCO4)cc(OC)c1O,< 0.4 µM,284%,25 µM,–,–
COc1cc([C@@H]2c3cc4c(cc3[C@@H](NCc3cccc(Cl)c3)[C@H]3COC(=O)[C@H]23)OCO4)cc(OC)c1O,1.2 µM,159%,50 µM,–,–
COc1cc([C@@H]2c3cc4c(cc3[C@@H](OCc3ccc([N+](=O)[O-])cc3)[C@H]3COC(=O)[C@H]23)OCO4)cc(OC)c1O,1.9 µM,< 25%,> 100 µM,–,–
